US9096500B2, “Acyl sulfonamide compounds” (Pfizer Limited, priority 2010, dated 2015)
Counter-ions that a name gives are not always drawn.

Molecular target: T1, Nav1.7 (or SCN9A) channel (Homo sapiens, UniProt Q15858)
T1 construct: expressed in transfected cells
Assay: Nav1.7 (hSCN9A) electrophysiology assay, PatchXpress platform
Format: cell-based
Details: estimated IC50 from single point electrophysiology data, HEK cells stably expressing hSCN9A, held at V1/2 of inactivation, read-out: Nav1.7 EIC50
Description: The ability of the compounds of formula (I) to block the Nav1.7 (or SCN9A) channel were measured using the assay described below.
Human Embryonic Kidney (HEK) cells were transfected with an hSCN9A construct using lipofectamine reagent (Invitrogen), using standard techniques. Cells stably expressing the hSCN9A constructs were identified by their resistance to G-418 (400 μg/ml). Clones were screened for expression using the whole-cell voltage-clamp technique.
HEK cells stably transfected with hSCN9A were maintained in DMEM medium supplemented with 10% heat-inactivated fetal bovine serum and 400 μg/ml G-418 in an incubator at 37° C. with a humidified atmosphere of 10% CO2. For HTS, cells were harvested from flasks by trypsinization and replated in an appropriate multi-well plate (typically 96 or 384 wells/plate) such that confluence would be achieved within 24 hours of plating. For electrophysiological studies, cells were removed from the culture flask by brief trypsinization and re-plated at low density onto glass cover slips. Cells were typically used for electrophysiological experiments within 24 to 72 hours after plating.
Cover slips containing HEK cells expressing hSCN9A were placed in a bath on the stage of an inverted microscope and perfused (approximately 1 ml/minutes) with extracellular solution of the following composition: 138 mM NaCl, 2 mM CaCl2, 5.4 mM KCl, 1 mM MgCl2, 10 mM glucose, and 10 mM HEPES, pH 7.4, with NaOH. […] The osmolarity of the extracellular and intracellular solutions was 300 mOsm/kg and 295 mOsm/kg, respectively. All recordings were made at room temperature (22-24° C.) using AXOPATCH 200B amplifiers and PCLAMP software (Axon Instruments, Burlingame, Calif.).
hSCN9A currents in HEK cells were measured using the whole-cell configuration of the patch-clamp technique (Hamill et al., 1981). Uncompensated series resistance was typically 2 to 5 mega ohms and >85% series resistance compensation was routinely achieved. […] Current records were acquired at 20 to 50 KHz and filtered at 5 to 10 KHz.
HEK cells stably transfected with hSCN9A were viewed under Hoffman contrast optics and placed in front of an array of flow pipes emitting either control or compound-containing extracellular solutions. All compounds were dissolved in dimethyl sulfoxide to make 10 mM stock solutions, which were then diluted into extracellular solution to attain the final concentrations desired. […] The voltage-dependence of inactivation was determined by applying a series of depolarizing prepulses (8 sec long in 10 mV increments) from a negative holding potential. The voltage was then immediately stepped to 0 mV to assess the magnitude of the sodium current. Currents elicited at 0 mV were plotted as a function of prepulse potential to allow estimation of the voltage at which 50% of the channels were inactivated (midpoint of inactivation or V1/2). Compounds were tested for their ability to inhibit hSCN9A sodium channels by activating the channel with a 20 msec voltage step to 0 mV following an 8 second conditioning prepulse to the empirically determined V1/2. Compound effect (% inhibition) was determined by difference in current amplitude before and after application of test compounds. […] Inhibition values <20% and >80% were excluded from the calculation.
Electrophysiological assays were conducted with PatchXpress 7000 hardware and associated software (Molecular Devices Corp). All assay buffers and solutions were identical to those used in conventional whole-cell voltage clamp experiments described above. hSCN9A cells were grown as above to 50%-80% confluency and harvested by trypsinization. Trypsinized cells were washed and resuspended in extracellular buffer at a concentration of 1×10^6 cells/ml. The onboard liquid handling facility of the PatchXpress was used for dispensing cells and application of test compounds.

T1 sequence (Q15858 whole entry): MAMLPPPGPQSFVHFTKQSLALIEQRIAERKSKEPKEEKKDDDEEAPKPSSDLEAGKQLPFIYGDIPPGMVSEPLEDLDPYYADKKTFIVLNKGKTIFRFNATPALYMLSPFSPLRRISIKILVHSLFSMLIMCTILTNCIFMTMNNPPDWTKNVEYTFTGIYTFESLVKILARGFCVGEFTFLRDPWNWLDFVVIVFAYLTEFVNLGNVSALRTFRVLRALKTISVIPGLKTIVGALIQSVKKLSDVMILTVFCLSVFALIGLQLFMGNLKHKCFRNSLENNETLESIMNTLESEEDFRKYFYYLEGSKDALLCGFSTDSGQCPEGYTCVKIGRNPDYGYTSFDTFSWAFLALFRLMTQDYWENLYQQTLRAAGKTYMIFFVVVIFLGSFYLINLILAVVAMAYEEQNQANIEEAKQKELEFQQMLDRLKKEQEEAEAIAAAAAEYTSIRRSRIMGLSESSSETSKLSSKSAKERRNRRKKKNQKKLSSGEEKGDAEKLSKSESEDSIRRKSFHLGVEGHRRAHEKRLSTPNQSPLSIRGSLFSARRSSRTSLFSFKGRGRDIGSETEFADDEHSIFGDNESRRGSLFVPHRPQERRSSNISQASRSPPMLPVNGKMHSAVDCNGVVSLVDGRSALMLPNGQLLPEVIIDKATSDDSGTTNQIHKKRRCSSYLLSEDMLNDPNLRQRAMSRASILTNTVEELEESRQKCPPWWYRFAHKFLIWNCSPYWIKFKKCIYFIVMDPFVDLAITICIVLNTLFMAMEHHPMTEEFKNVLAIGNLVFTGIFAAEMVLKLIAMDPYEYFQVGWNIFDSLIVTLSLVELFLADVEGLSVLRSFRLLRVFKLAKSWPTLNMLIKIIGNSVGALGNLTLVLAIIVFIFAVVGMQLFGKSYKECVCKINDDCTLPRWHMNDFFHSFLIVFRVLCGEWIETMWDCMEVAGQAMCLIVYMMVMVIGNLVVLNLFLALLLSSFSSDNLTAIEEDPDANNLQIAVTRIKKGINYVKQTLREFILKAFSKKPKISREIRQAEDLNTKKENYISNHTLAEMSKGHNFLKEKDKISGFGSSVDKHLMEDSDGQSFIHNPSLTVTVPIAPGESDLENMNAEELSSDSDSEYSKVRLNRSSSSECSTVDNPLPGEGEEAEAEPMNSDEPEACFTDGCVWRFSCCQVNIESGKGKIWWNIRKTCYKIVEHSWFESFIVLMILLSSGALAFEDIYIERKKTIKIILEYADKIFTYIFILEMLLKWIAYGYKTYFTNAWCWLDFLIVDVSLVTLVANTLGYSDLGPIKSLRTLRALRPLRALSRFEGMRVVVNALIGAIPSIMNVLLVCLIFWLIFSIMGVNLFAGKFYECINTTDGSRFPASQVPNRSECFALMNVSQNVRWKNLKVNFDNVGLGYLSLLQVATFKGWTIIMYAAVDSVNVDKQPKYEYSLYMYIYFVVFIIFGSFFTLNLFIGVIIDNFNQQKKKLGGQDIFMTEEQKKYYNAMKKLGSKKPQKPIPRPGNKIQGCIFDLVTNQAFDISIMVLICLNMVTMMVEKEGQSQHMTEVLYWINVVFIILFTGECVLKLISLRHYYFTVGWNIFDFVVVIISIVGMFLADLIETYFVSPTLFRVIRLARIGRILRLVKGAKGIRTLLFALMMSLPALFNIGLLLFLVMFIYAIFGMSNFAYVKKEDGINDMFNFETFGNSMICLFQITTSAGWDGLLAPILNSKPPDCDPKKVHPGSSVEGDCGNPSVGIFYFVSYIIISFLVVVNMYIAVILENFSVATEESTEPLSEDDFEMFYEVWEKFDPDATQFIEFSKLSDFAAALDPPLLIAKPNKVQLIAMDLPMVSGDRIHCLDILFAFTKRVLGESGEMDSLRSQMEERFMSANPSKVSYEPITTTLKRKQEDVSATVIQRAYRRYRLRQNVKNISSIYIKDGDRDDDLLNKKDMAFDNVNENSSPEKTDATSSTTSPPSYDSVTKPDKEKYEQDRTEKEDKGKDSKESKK

| SMILES | IC50 [nM] |
| --- | --- |
| CS(=O)(=O)NC(=O)c1ccc(OCc2cc(F)ccc2F)cc1 [Example 208, 4-[(2,5-difluorobenzyl)oxy]-N-(methylsulfonyl)benzamide] | 2600 |
| CS(=O)(=O)NC(=O)c1cc(F)c(COc2cc(Cl)ccc2Cl)cc1F [Example 134, 4-[(2,5-dichlorophenoxy)methyl]-2,5-difluoro-N-(methylsulfonyl)benzamide] | 470 |
| CS(=O)(=O)NC(=O)c1ccc(OCc2ccc(Cl)c(Cl)c2)cc1 [Example 3] | 290 |
| CS(=O)(=O)NC(=O)c1cc(F)c(COc2ccc(F)c(Cl)c2C#N)cc1F [Example 163, 4-[(3-chloro-2-cyano-4-fluorophenoxy)methyl]-2,5-difluoro-N-(methylsulfonyl)benzamide] | > 1000 |
| CS(=O)(=O)NC(=O)c1cc(F)c(COc2ccc(Cl)c(OC(F)(F)F)c2)cc1F [Example 51, 4-((4-Chloro-3-(trifluoromethoxy)phenoxy)methyl)-2,5-difluoro-N-(methylsulfonyl)benzamide] | 12 |
| Cc1cc(C)cc(OCc2cc(F)c(C(=O)NS(C)(=O)=O)cc2F)c1 [Example 119, 4-[(3,5-dimethylphenoxy)methyl]-2,5-difluoro-N-(methylsulfonyl)benzamide] | 380 |
| CS(=O)(=O)NC(=O)c1cc(F)c(COc2cccc(C(F)(F)F)c2)cc1F [Example 109, 2,5-difluoro-N-(methylsulfonyl)-4-{[3-(trifluoromethyl)phenoxy]methyl}benzamide] | 140 |
| CS(=O)(=O)NC(=O)c1ccc(OCc2ccc(-n3cccn3)cc2)c(Cl)c1 [Example 90, 3-chloro-N-(methylsulfonyl)-4-{[4-(1H-pyrazol-1-yl)benzyl]oxy}benzamide] | > 3000 |
| Cn1nc(C(F)(F)F)cc1-c1ccc(OCc2ccc(C(=O)NS(C)(=O)=O)cc2)cc1 [Example 4, N-(Methylsulfonyl)-4-({4-[1-methyl-3-(trifluoromethyl)-1H-pyrazol-5-yl]phenoxy}methyl)benzamide diethylamine salt] | 1200 |
| CCc1ccc(OCc2ccc(C(=O)NS(C)(=O)=O)cc2OC)cc1 [Example 42, 4-[(4-Ethylphenoxy)methyl]-3-methoxy-N-(methylsulfonyl)benzamide diethylamine salt] | 250 |
| CS(=O)(=O)NC(=O)c1cc(F)c(COc2ccccc2OC(F)(F)F)cc1F [Example 117, 2,5-difluoro-N-(methylsulfonyl)-4-{[2-(trifluoromethoxy)phenoxy]methyl}benzamide] | 2200 |
| CS(=O)(=O)NC(=O)c1cc(F)c(COc2cc(F)cc(C(F)(F)F)c2)cc1F [Example 108, 2,5-difluoro-4-{[3-fluoro-5-(trifluoromethyl)phenoxy]methyl}-N-(methylsulfonyl)benzamide] | 87 |
| CS(=O)(=O)NC(=O)c1ccc(OCc2ccccc2-c2ccccc2)c(C#N)c1 [Example 93, 4-(biphenyl-2-ylmethoxy)-3-cyano-N-(methylsulfonyl)benzamide] | > 3000 |
| CS(=O)(=O)NC(=O)c1cc(F)c(COc2cccc3ccccc23)cc1F [Example 165, 2,5-difluoro-N-(methylsulfonyl)-4-[(1-naphthyloxy)methyl]benzamide] | 740 |
| CS(=O)(=O)NC(=O)c1cc(F)c(OCc2ccc(OC(F)(F)F)cc2)cc1F [Example 212, 2,5-difluoro-N-(methylsulfonyl)-4-{[4-(trifluoromethoxy)benzyl]oxy}benzamide] | > 300 |
| CS(=O)(=O)NC(=O)c1cc(F)c(COc2ccc(Cl)c(C(F)(F)F)c2)cc1F [Example 54, 4-((4-Chloro-3-(trifluoromethyl)phenoxy)methyl)-2,5-difluoro-N-(methylsulfonyl)benzamide] | 130 |
| CS(=O)(=O)NC(=O)c1ccc(OCc2cc(Cl)ccc2Cl)cc1 [Example 175, 4-[(2,5-dichlorobenzyl)oxy]-N-(methylsulfonyl)benzamide] | 2100 |
